Results as given in article PMC7170889, “Synthesis and evaluation of designed PKC modulators for enhanced cancer immunotherapy” (Nature Communications, 2020).

What was measured:
PKCα = target: T1, PKCα (Homo sapiens, UniProt P17252); experiment: PKC competitive binding assay with [3H]-phorbol dibutyrate (PKCα); conditions: cell-free, competition with [3H]-PDBu, PS vesicles; read-out: Ki PKCα
T1 construct: purchased Invitrogen
Experimental: (§1) With a panel of compounds bearing diverse functionality at C13, we began to explore how these modifications affect PKC binding and biological function. Because an obvious prerequisite for PKC pathway involvement is binding to PKC, compounds were initially evaluated for PKC affinity in a cell-free competitive binding assay with tritiated phorbol dibutyrate ([^3H]-PDBu). Assays were performed with representative members of both the conventional (PKCα) and novel (PKCδ) PKC families. Subsequently, compounds were assayed for PKC isoform translocation in real time in living cells using an optical assay. Translocation to the plasma membrane is the hallmark of PKC activation[18],[57],[60] and therefore monitoring the subcellular localization of a PKCδ-GFP fusion protein via confocal microscopy offers a convenient method for determining whether a compound enters a cell and engages its PKC isoform target. Finally and of clinical significance, we also determined the effect of compounds on CD22 surface expression in vitro in NALM6 cells, an ALL cell line previously studied in connection with CD22-targeted CAR T cell therapy, and two additional lymphoma cell lines[11],[31],[65].
(§2) PKC Binding Assay Protocol […]
(§3) competition with 3H-phorbol-12,13-dibutyrate (3H-PDBu) as described below. This procedure entails a glass-fiber filtration method to determine bound radioligand.
(§4) Preparation of PKC binding assay buffer
(§5) To a 50 mL polypropylene tube was added Tris-HCl (pH 7.4, 1 M, 1 mL), KCl (1 M, 2 mL), CaCl2 (0.1 M, 30 μL), and bovine serum albumin (BSA, 40 mg, Sigma-Aldrich). This mixture was diluted to 20 mL with deionized H2O and mixed gently. The buffer was stored on ice until use. The final […]
(§6) Supplementary Table1. PKC binding assay buffer composition.
(§7) Preparation of phosphatidylserine (PS) vesicles
(§8) For every two assays, 3.5 mg phosphatidylserine (Avanti Polar Lipids, porcine, 25 mg/mL CHCl3 solution) was concentrated by removing chloroform under a stream of nitrogen followed by reduced pressure. The solid PS was suspended as vesicles in freshly prepared PKC binding assay buffer (3.5 mL) by sonicating six times for 30 sec, with a 30 sec rest between sonications (Branson Sonifier 250, power = 2, 50% duty cycle). The resulting milky cloudy mixture (1 mg/mL) was stored […]
(§9) Preparation of PKC isoform solution
(§10) Assay PKC was prepared by dissolving a 4 μg aliquot of the indicated recombinant human PKC isoform (Invitrogen) into 11.6 mL of PKC binding assay buffer (this amount is sufficient for two assays). The diluted PKC was stored on ice for immediate use.
(§11) Preparation of 3H-PDBu solution
(§12) 3H-PDBu (American Radiolabeled Chemicals, Inc.; 1 mCi/mL acetone solution; specific activity: […]) was diluted 10-fold with DMSO. The resulting 500 nM stock solution was further diluted with DMSO to 30 nM.
(§13) Preparation of analog compound dilutions
(§14) Compound dilutions were prepared by serially diluting from a chosen "high" concentration by factors of 3 or 4. For each analog compound, seven concentrations were used to define the […]
(§15) To a polypropylene tube was added 3.3 mL of 1 mg/mL PS vesicles solution, 11 mL of PKC isoform solution, and 1.1 mL of 30 nM 3H-PDBu solution were added. The resulting solution was vortexed to mix and stored on ice.
(§16) PKC binding assay protocol
(§17) - Glass-fiber filters (Whatman GF/B) were prepared by soaking them in a solution of aqueous polyethyleneimine (10% by vol, 18 mL) in deionized water (600 mL) for ≥1h.
(§18) - 500 mL "rinsing buffer" of 20 mM Tris, pH 7.4 was cooled on ice for the duration of the incubation period and for the remainder of the assay.
Triplicate data points were obtained for each analog concentration. For each data point, 280 μL of "Master Mix" Solution and 20 μL of analog compound at a specified concentration were added to a polypropylene tube. Non-specific 3H-PDBu binding was assessed in triplicate by substitution

PKCδ = target: T2, PKCδ (Homo sapiens, UniProt Q05655); experiment: PKC competitive binding assay with [3H]-phorbol dibutyrate (PKCδ); conditions: cell-free, competition with [3H]-PDBu, PS vesicles
T2 construct: purchased Invitrogen
T2 sequence (Q05655 whole entry): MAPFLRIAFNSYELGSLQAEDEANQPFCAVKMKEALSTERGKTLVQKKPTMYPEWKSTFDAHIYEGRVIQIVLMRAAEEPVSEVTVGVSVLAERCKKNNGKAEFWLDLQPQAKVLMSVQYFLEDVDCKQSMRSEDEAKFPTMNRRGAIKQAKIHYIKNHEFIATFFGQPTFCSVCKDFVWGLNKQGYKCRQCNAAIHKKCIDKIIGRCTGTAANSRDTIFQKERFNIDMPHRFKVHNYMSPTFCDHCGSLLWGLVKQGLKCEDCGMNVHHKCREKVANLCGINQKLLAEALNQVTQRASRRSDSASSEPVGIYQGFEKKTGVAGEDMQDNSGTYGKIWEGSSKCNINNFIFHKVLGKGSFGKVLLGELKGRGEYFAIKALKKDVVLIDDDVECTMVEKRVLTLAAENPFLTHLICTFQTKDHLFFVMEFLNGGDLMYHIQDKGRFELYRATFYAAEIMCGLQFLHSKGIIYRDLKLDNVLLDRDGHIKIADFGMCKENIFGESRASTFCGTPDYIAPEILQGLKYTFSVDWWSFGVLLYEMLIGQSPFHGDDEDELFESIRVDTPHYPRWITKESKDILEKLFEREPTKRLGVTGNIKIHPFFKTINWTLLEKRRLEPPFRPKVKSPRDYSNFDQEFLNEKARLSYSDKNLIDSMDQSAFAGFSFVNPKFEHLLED
Experimental: as §1, §2, §3, §4, §5, §6, §7, §8, §9
Assay PKC was prepared by dissolving a 4 μg aliquot of the indicated recombinant human PKC isoform (Invitrogen) into 11.6 mL of PKC binding assay buffer (this amount is sufficient for two assays). The diluted PKC was stored on ice for immediate use. […]
μCi/mmol) was diluted 10-fold with DMSO. The resulting 500 nM stock solution was further diluted with DMSO to 30 nM.
as §13, §14, §15, §16, §17, §18
Triplicate data points were obtained for each analog concentration. For each data point, 280 μL of "Master Mix" Solution and 20 μL of analog compound at a specified concentration were added to a polypropylene tube. Non-specific 3H-PDBu binding was assessed in triplicate by substitution […]
μM). Maximal 3H-PDBu binding was assessed in triplicate by substitution of the analog compound with 20 μL DMSO. The solutions were vortexed to mix, incubated at 37 °C for 10 min, and […]

PKC = PKC competitive binding assay, isoform not specified; set-up: species or system human; conditions: conventional and novel PKC isoforms
Experimental: as §1, §2, §3, §4, §5, §6, §7, §8, §9, §10, §11, §12, §13, §14, §15, §16
- Glass-fiber filters (Whatman GF/B) were prepared by soaking them in a solution of […]

| Structure (SMILES) | Ki (PKCα) [nM] | Ki (PKCδ) [nM] | PKC binding affinity in words (PKC) |
| --- | --- | --- | --- |
| CCCCCC#CC(=O)O[C@H]1/C(=C/C(=O)OC)C[C@H]2C[C@H]([C@@H](C)O)OC(=O)C[C@H](O)C[C@@H]3C[C@H](OC(C)=O)C(C)(C)[C@](O)(C[C@@H]4C[C@H](O)C[C@H](/C=C/C(C)(C)[C@]1(O)O2)O4)O3 [SUW204] | 1.4 | 3.7 | single-digit nanomolar |
| CCC/C=C/C=C/C(=O)O[C@H]1/C(=C/C(=O)OC)C[C@H]2C[C@H]([C@@H](C)O)OC(=O)C[C@H](O)C[C@@H]3C[C@H](OC(C)=O)C(C)(C)[C@](O)(C[C@@H]4C[C@@H](OC(C)=O)C[C@H](/C=C/C(C)(C)[C@]1(O)O2)O4)O3 [SUW207] | 2 | 5.4 |  |
| CCCC=CC=CC(=O)OC1C(=CC(=O)OC)CC2CC(C(C)O)OC(=O)CC(O)CC3CC(OC(C)=O)C(C)(C)C(O)(CC4CC(OC(=O)Nc5ccccc5)CC(C=CC(C)(C)C1(O)O2)O4)O3 (stereo not drawn) [SUW208] | 1 | 4.7 |  |
| CCCC=CC=CC(=O)OC1C(=CC(=O)OC)CC2CC(C(C)O)OC(=O)CC(O)CC3CC(OC(C)=O)C(C)(C)C(O)(CC4CC(OC(=O)CC56CC7CC(CC(C7)C5)C6)CC(C=CC(C)(C)C1(O)O2)O4)O3 (stereo not drawn) [SUW209] | 1.6 | 3.5 |  |
| CCCC=CC=CC(=O)OC1C(=CC(=O)OC)CC2CC(C(C)O)OC(=O)CC(O)CC3CC(OC(C)=O)C(C)(C)C(O)(CC4CC(OC(=O)CCc5c[nH]c6ccccc56)CC(C=CC(C)(C)C1(O)O2)O4)O3 (stereo not drawn) [SUW210] | 5.6 | 7.3 |  |
| CCCC=CC=CC(=O)OC1C(=CC(=O)OC)CC2CC(C(C)O)OC(=O)CC(O)CC3CC(OC(C)=O)C(C)(C)C(O)(CC4CC(=CC(=O)OCC)CC(C=CC(C)(C)C1(O)O2)O4)O3 (stereo not drawn) [SUW217] | 9.2 | 9.4 |  |
| CCCC=CC=CC(=O)OC1C(=CC(=O)OC)CC2CC(C(C)O)OC(=O)CC(O)CC3CC(OC(C)=O)C(C)(C)C(O)(CC4CC(=CC(=O)OCC)CC(C=CC(C)(C)C1(O)O2)O4)O3 (stereo not drawn) [SUW218] | 7.1 | 6.6 |  |
